Patent publication US20260284091A1, “IMIDAZOLE LOADED GLYCYRRHIZIC ACID HYDROGELS” (KATHOLIEKE UNIVERSITEIT LEUVEN, priority 2023, published 2026)

What was measured:
Assay in all cases: Growth inhibition and biocidal activity evaluation of glycyrrhizic acid hydrogels
MRSA = assay type: cell-based, Methicillin-resistant Staphylococcus aureus; details: bactericidal = 3 LOG reduction compared to the inoculum
Description: Escherichia coli UTI89, Pseudomonas aeruginosa LMG9009, Staphylococcus aureus ATCC6538, Klebsiella pneumoniae ATCC13883, Klebsiella aerogenes ATCC13048, Acinetobacter baumannii RD5SR3. Enterococcus faecalis LMG8148, Streptococcus pyogenes LMG 14237 and clinical isolates of a Staphylococcus epidermidis and a methicillin resistant S. aureus (MRSA), isolated from osteomyelitis patients were used. Prior to the experiments, all strains, except S. pyogenes were inoculated in Lysogeny broth (LB) and incubated overnight on 37° C. (200 rpm). Overnight cultures of S. pyogenes were grown micro-aerophilic in Brain-Heart infusion broth (BHI). Thereafter, the bacteria were normalized to roughly 5*10^5 CFU mL^−1. Lysogeny broth (LB; 10 g L^−1 NaCl, 10 g L^−1 Tryptone, 5 g L^−1 Yeast Extract) was used to create overnight cultures (ONC). […]
(i) Hydrogel C with pH=3, (ii) Hydrogel B with pH=3.8 and (iii) Hydrogel A with pH=4.2. pH was measured at 70° C. and varied using HCl or NaOH to acidify or alkalify the formulation to the desired pH-value. […]
To avoid evaporation, the plates were sealed using a membrane (Greiner Bio-one NV). After 24 hours of incubation (37° C., 200 rpm), the OD595 was measured and relative OD595 was calculated by dividing the OD595 by the average OD595 of the growth control (=growth of cells in MHB without glycyrrhizic acid). […]

[1] = system: Acinetobacter baumannii RD5SR3; assay type: cell-based; details: A. baumannii; bactericidal = 3 LOG reduction compared to the inoculum
Description: (§1) Escherichia coli UTI89, Pseudomonas aeruginosa LMG9009, Staphylococcus aureus ATCC6538, Klebsiella pneumoniae ATCC13883, Klebsiella aerogenes ATCC13048, Acinetobacter baumannii RD5SR3. Enterococcus faecalis LMG8148, Streptococcus pyogenes LMG 14237 and clinical isolates of a Staphylococcus epidermidis and a methicillin resistant S. aureus (MRSA), isolated from osteomyelitis patients were used. Prior to the experiments, all strains, except S. pyogenes were inoculated in Lysogeny broth (LB) and incubated overnight on 37° C. (200 rpm). Overnight cultures of S. pyogenes were grown micro-aerophilic in Brain-Heart infusion broth (BHI). Thereafter, the bacteria were normalized to roughly 5*10^5 CFU mL^−1. Lysogeny broth (LB; 10 g L^−1 NaCl, 10 g L^−1 Tryptone, 5 g L^−1 Yeast Extract) was used to create overnight cultures (ONC). Mueller Hinton Broth (MHB; 21 g L^−1 MHB) was used for the minimal inhibitory concentration (MIC) assays for all strain except S. pyogenes. For this strain, BHI was used. If LB agar, BHI agar or MHB agar was needed, 15 g L^−1 of bacteriological agar was added. MHB or BHI batches with varying pH were made by adding HCl or NaOH to acidify or alkalify the medium to the desired pH-value, respectively. Three different formulations of the glycyrrhizic acid hydrogels were made in dH2O:
(§2) (i) Hydrogel C with pH=3, (ii) Hydrogel B with pH=3.8 and (iii) Hydrogel A with pH=4.2. pH was measured at 70° C. and varied using HCl or NaOH to acidify or alkalify the formulation to the desired pH-value. Moreover, different concentration batches (mass by volume) were used for the hydrogels: 2.5%, 5%, 7,5%, 10%, 15% and 20%. Glycyrrhizic acid in solution—not a hydrogel—was prepared at pH 7,4.
(§3) To determine the growth inhibiting activity of glycyrrhizic acid in solution, 100 μL of different 1:2 dilutions of a 100 mg/mL stock solution of glycyrrhizic acid in MHB were added to the wells of a 96 well microtiter plate, after which 100 μL of a 5*10^5 CFU mL^−1 bacteria suspension in MHB was added to each well.
(§4) To determine the growth inhibiting activity of the glycyrrhizic acid hydrogels, the hydrogel was liquefied by heating to 70° C. When liquid, varying volumes of the liquid hydrogel (80 μL to 160 μL) were pipetted into a 96 well microtiter plate. After the hydrogel solidified, 120 μL of a 5*10^5 CFU mL^−1 bacteria suspension in MHB was added on top of the hydrogel.
(§5) To avoid evaporation, the plates were sealed using a membrane (Greiner Bio-one NV). After 24 hours of incubation (37° C., 200 rpm), the OD595 was measured and relative OD595 was calculated by dividing the OD595 by the average OD595 of the growth control (=growth of cells in MHB without glycyrrhizic acid).
(§6) To determine the biocidal activity of glycyrrhizic acid in solution and in hydrogel, at the end of the growth inhibition assay (see above), after incubation, 100 μL of the medium on top of the hydrogel was diluted 10 times in Phosphate saline buffer (PBS; 1.24 g L^−1 K2HPO4. 0.39 g L^−1 KH2PO4. 8.8 g L^−1 NaCl) and plated out on MHB agar plates by spreading 100 μL of the dilution. After incubating overnight at 37° C., colonies were counted and the colony forming units were determined.

[2] = system: Enterococcus faecalis LMG8148; assay type: cell-based; details: bactericidal = 3 LOG reduction compared to the inoculum
Description: as §1, §2, §3, §4, §5, §6

Escherichia coli UTI89 = assay type: cell-based; details: E. coli; bactericidal = 3 LOG reduction compared to the inoculum
Description: as §1, §2, §3, §4, §5, §6

[3] = system: Klebsiella aerogenes ATCC13048; assay type: cell-based; details: K. aerogenes; bactericidal = 3 LOG reduction compared to the inoculum
Description: as §1, §2, §3, §4, §5, §6

[4] = system: Klebsiella pneumoniae ATCC13883; assay type: cell-based; details: K. pneumoniae; bactericidal = 3 LOG reduction compared to the inoculum
Description: as §1, §2, §3, §4, §5, §6

[5] = system: Pseudomonas aeruginosa LMG9009; assay type: cell-based; details: P. aeruginosa; bactericidal = 3 LOG reduction compared to the inoculum
Description: as §1, §2, §3, §4, §5, §6

[6] = system: Staphylococcus epidermidis; assay type: cell-based; details: S. epidermidis; bactericidal = 3 LOG reduction compared to the inoculum
Description: as §1, §2, §3, §4, §5, §6

[7] = system: Streptococcus pyogenes LMG 14237; assay type: cell-based
Description: as §1, §2, §3, §4, §5, §6

With `CC1(C)[C@@H](O[C@H]2O[C@H](C(=O)O)[C@@H](O)[C@H](O)[C@H]2O[C@@H]2O[C@H](C(=O)O)[C@@H](O)[C@H](O)[C@H]2O)CC[C@]2(C)[C@H]3C(=O)C=C4[C@@H]5C[C@@](C)(C(=O)O)CC[C@]5(C)CC[C@@]4(C)[C@]3(C)CC[C@@H]12` [GLY in solution, glycyrrhizic acid] the “antibacterial effect (no effect, bacteriostatic, bactericidal)” value (MRSA) was “No effect”, the “antibacterial effect (no effect, bacteriostatic, bactericidal)” value [1] was “No effect” and the “antibacterial effect (no effect, bacteriostatic, bactericidal)” value [2] was “No effect”. The “antibacterial effect (no effect, bacteriostatic, bactericidal)” value (Escherichia coli UTI89) was “No effect”, the “antibacterial effect (no effect, bacteriostatic, bactericidal)” value [3] was “No effect” and the “antibacterial effect (no effect, bacteriostatic, bactericidal)” value [4] was “No effect”. The “antibacterial effect (no effect, bacteriostatic, bactericidal)” value [5] was “No effect”, the “antibacterial effect (no effect, bacteriostatic, bactericidal)” value [6] was “No effect” and the growth inhibition ([7]; 50 mg/mL in solution, pH 7.0, only one of nine pathogens tested that was inhibited) was “inhibited”. For the same compound, the “antibacterial effect (no effect, bacteriostatic, bactericidal)” value ([7]; Streptococcus, bactericidal = 3 LOG reduction compared to the inoculum) was “Bacteriostatic”.
